These results are taken from patent US20260364080A1, “PYRAZOLO-PYRIMIDINONE COMPOUNDS FOR USE IN METHODS OF INHIBITING WEE1 A KINASE” (Acrivon Therapeutics, Inc., priority 2023, published 2026).

The target of test [1] is T1, Wee1A kinase (CDK1 Tyr15 phosphorylation in ACHN renal cell carcinoma cells) (Homo sapiens, UniProt P30291).
T1 construct: pCDK1 Tyr15 immunofluorescence read-out
Nature of the test: High-content imaging of pCdk1 Y15, Wee1A kinase target engagement in ACHN cells. It is filed as cell-based. The following applies: 4 h treatment, nuclear positivity for pCdk1 Y15 vs DMSO control, read-out: CDK1 Tyr15 Phosphorylation EC50. On the procedure: Each of an ACHN renal cell carcinoma cell line (ATCC) and a DAOY medulloblastoma cell line, and an A427 lung cancer line were cultured in Minimum Essential Medium Eagle supplemented with 10% fetal calf serum (Sigma), 1% Penicillin-Streptomycin and 10 mM HEPES buffer (HyClone). Cell cultures were kept in a humidified incubator at 37 °C and 5% CO2. Cells were routinely tested for Mycoplasma contamination.
For target engagement assessment of Wee1A kinase inhibition, high-content imaging of ACHN renal cell carcinoma cells was used for quantification of CDK1 phosphorylated on tyrosine 15 by immunofluorescence (“IF”). 20,000 cells per well were seeded in tissue culture treated 96 well plates and treated with compounds at concentrations ranging from 7 to 5,000 nM or from 0.3 to 200 nM for 4h. Cells were fixated for 15 minutes in 4% paraformaldehyde solution, washed in PBS and permeabilized using 0.2% Triton X-100. Blocking was performed for 1 h at RT using Blocker FL Fluorescent Blocking Buffer (Thermo Scientific), thereafter cells were incubated with primary antibody (rabbit anti-pCDK1 Y^15, #4539, Cell Signaling Technology) at 4 °C ON. Alexa Fluor Plus 647 labelled goat anti-rabbit (A32733, Thermo Scientific) was used as secondary antibody. After washing in PBS, nuclei were stained with DAPI solution for 10 min at RT, protected from light. Cells were imaged using an ImageXpress Pico automated imaging system and CellReporter Xpress software (Molecular Devices). The percentage of cells with nuclear positivity for pCdk1 Y^15 compared to DMSO control was determined for each well and drug dose response curves and EC50 values were calculated and visualized using GraphPad Prism. Target engagement for Wee1A kinase can also be measured using the same AlphaLISA assay in OVCAR3 cells, an ovarian cancer cell line. NIH:OVCAR-3 (OVCAR3) cells are cultured in RPMI-1640 medium supplemented with 0.01 mg/ml insulin, 20% FBS, 1% Penicillin-Streptomycin and 10 mM HEPES buffer. 14,000 cells per well are seeded into 96 well tissue culture plates in full medium. Twenty-four hours post seeding, cells are treated with compound for 4 hours at concentrations ranging from 0.017 nM to 1000 nM.

Test [2] addresses T2, recombinant human Wee1A kinase (Homo sapiens, UniProt P30291).
T2 construct: full length Wee1 kinase was expressed by baculovirus in insect cells; purchased Invitrogen PV3817; host or cells: insect cells (baculovirus)
The test is described as follows: Wee1A kinase binding assay (LanthaScreen Eu time-resolved FRET). To be noted: 30 nM tracer 178, 5 nM Wee1A kinase, 2 nM Eu-labeled antibody; 60 minutes at room temperature; read-out: Wee1A kinase Binding IC50. On the procedure:
This time resolved-FRET binding assay was performed in white 384-well low volume plates (Greiner, cat #784075), at room temperature in kinase buffer A (KBA; Invitrogen cat #PV3189), consisting of 50 mM HEPES-NaOH (pH 7.5), 0.01% Brij-35, 10 mM MgCl2, and 1 mM EGTA. 5 μL of compound (diluted in reaction buffer, to 1% DMSO) were added to various wells in the plate, followed by 5 μL each of recombinant human Wee1A kinase (full length Wee1 kinase was expressed by baculovirus in insect cells using a N-terminal GST tag (MW: 99.1 kDa) (Invitrogen cat #PV3817) and LanthaScreen Eu-anti-GST antibody (Invitrogen, cat #PV5594). After this, 5 μL of kinase tracer 178 (Invitrogen, cat #PV5593) was added to the plate and the plate was incubated for 60 minutes at room temperature. The final assay conditions in each well were: 30 nM tracer 178, 5 nM Wee1A kinase and 2 nM Eu-labeled antibody in total assay volume of 15 μL. An Envision 2104 (Perkin-Elmer) Plate Reader with the following time-resolve fluorescence setting was used for performing LanthaScreen kinase binding assay. • Excitation 320 nm (30 nm bandpass) • Kinase Tracer Emission 665 nm (10 nm bandpass) • LanthaScreen Eu-anti-Tag Antibody Emission 615 nm (10 nm bandpass) • Dichroic Mirror Instrument dependent • Delay Time 100 μs • Integration Time 200 μs
(§1) To calculate the emission ratio, the acceptor/tracer emission ([…]) was divided by the antibody/donor emission ([…]) and the average of duplicate measurement was used for calculations. Data plotting, analysis of binding, and curve fitting was done using Excel add-in XLfit version 5.5.0.5 (IDBS, Guildford, United Kingdom). […] “NT” means not tested.
For orientation: In TR-FRET formats the signal depends on donor and acceptor labels being close together.

Test [3] deals with T3, Myt1 kinase (recombinant PMYT-1) (Homo sapiens, UniProt Q99640).
T3 construct: full length PMYT-1 was expressed by baculovirus in insect cells; purchased Invitrogen A30984; host or cells: insect cells (baculovirus)
T3 sequence (Q99640 1-499): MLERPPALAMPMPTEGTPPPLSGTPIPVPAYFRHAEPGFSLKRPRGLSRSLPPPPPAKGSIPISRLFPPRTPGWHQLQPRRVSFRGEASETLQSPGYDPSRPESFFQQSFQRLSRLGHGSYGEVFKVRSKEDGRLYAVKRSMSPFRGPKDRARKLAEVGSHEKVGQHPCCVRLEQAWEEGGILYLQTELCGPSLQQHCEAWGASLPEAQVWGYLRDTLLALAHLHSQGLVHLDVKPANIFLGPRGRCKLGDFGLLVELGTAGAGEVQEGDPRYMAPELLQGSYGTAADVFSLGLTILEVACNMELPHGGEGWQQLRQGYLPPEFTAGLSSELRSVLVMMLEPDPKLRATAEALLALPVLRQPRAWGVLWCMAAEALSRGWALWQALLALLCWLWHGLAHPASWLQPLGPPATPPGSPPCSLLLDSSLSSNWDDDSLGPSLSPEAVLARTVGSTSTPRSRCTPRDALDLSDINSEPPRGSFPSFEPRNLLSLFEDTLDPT
Nature of the test: Myt1 kinase binding assay (LanthaScreen Eu Kinase Binding Assay). To be noted: 3 nM tracer 178, 2.5 nM PMYT-1, 1 nM Eu-labeled antibody; read-out: Myt1 kinase Binding IC50. On the procedure:
as §1
We used a LanthaScreen Europium (Eu) Kinase Binding Assay to determine the binding affinities (IC50) of compounds to Myt1 kinase. […] “NT” designates that the compound was not tested in this assay.

Each structure is given as a SMILES string. pEC50, pIC50: −log10 of the molar value.

T2 sequence (P30291 whole entry): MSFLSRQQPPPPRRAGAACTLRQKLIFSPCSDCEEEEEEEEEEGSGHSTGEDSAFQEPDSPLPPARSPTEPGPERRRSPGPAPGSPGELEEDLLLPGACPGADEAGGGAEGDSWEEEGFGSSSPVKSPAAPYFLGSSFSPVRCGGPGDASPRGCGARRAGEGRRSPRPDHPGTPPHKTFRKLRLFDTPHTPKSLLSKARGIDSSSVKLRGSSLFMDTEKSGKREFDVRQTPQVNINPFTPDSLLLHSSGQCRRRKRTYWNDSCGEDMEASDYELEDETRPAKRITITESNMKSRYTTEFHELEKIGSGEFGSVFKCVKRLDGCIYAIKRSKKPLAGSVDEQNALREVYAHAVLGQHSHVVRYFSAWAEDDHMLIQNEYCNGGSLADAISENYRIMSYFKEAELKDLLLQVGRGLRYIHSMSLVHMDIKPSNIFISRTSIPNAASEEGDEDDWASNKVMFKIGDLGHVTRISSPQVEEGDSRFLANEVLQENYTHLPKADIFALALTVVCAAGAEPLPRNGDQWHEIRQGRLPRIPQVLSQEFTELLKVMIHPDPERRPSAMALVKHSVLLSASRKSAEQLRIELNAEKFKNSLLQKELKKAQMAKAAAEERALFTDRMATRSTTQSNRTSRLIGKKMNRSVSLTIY
T1 sequence (P30291 whole entry): as above

As for `C=CCn1c(=O)c2cnc(Nc3ccc4c(cnn4C)c3)nc2n1-c1cccc(O[C@@H]2CCN[C@@H](C)C2)n1` (relative stereo) [Compound 405, rel-2-allyl-6-((1-methyl-1H-indazol-5-yl)amino)-1-(6-(((2R,4S)-2-methylpiperidin-4-yl)oxy)pyridin-2-yl)-1,2-dihydro-3H-pyrazolo[3,4-d]pyrimidin-3-one], in test [1], the pEC50 (commonly −log10 of the EC50, conventionally taken in molar units) is above 7.00. The values for the pIC50 in test [2] and in test [3] were above 8.00 and 7.00 to 7.70, respectively.
The like results for `C=CCn1c(=O)c2cnc(Nc3ccc(F)cc3)nc2n1-c1cccc(O[C@H]2CCCNCC2)n1` (single isomer, unassigned) [Compound 266] were, in that order, 6.30 to 7.00, above 8.00 and 7.00 to 7.70.
Take `C=CCn1c(=O)c2cnc(Nc3ccc(F)cc3)nc2n1-c1cccc(OC2CCCNCC2)n1` (single isomer, unassigned) [Compound 344]: in test [1], the pEC50 was 6.30 to 7.00. The pIC50 (commonly the IC50 on a negative log10 scale, so that one unit is a factor of ten) is above 8.00 in test [2] and below 6.30 in test [3].
The like results for `C=CCn1c(=O)c2cnc(Nc3ccc(F)cc3)nc2n1-c1cccc(OC2CCCN(C)CC2)n1` (single isomer, unassigned) [Compound 351] were, in that order, above 7.00, above 8.00 and 7.00 to 7.70.
For `C=CCn1c(=O)c2cnc(Nc3ccc4c(cnn4C)c3)nc2n1-c1cccc(OC2CCCNCC2)n1` (single isomer, unassigned) [Compound 357], in that order: above 7.00, above 8.00 and 7.00 to 7.70.
The like results for `C=CCn1c(=O)c2cnc(Nc3ccc4c(cnn4C)c3)nc2n1-c1cccc(O[C@H]2CCCNCC2)n1` (single isomer, unassigned) [Compound 358] were, in that order, above 7.00, above 8.00 and 6.30 to 7.00.
`C=CCn1c(=O)c2cnc(Nc3ccc(F)cc3)nc2n1-c1cccc(OC2CCCN(C)CC2)n1` (single isomer, unassigned) [Compound 372]: the pEC50 in test [1] is above 7.00. The negative-log IC50 (pIC50) in test [2] was above 8.00; in test [3] it was 7.00 to 7.70.
On to `C=CCn1c(=O)c2cnc(Nc3ccc(Cl)cc3)nc2n1-c1cccc(OC2CCCNC2)n1` (stereo in doubt) [Compound 159, 6-[(4-chlorophenyl)amino]-1-{6-[(3R)-piperidin-3-yloxy]pyridin-2-yl}-2-(prop-2-en-1-yl)-1H,2H,3H-pyrazolo[3,4-d]pyrimidin-3-one], for which, in test [1], the pEC50 was 6.00 to 6.30. In addition, the results for the pIC50 in test [2] and in test [3] were above 8.00 and 7.00 to 7.70, respectively.
Consider `C=CCn1c(=O)c2cnc(Nc3ccc(Cl)cc3)nc2n1-c1cccc(N(C)[C@H]2CCCNC2)n1` [Compound 173, 1-{6-[N—(S)-3-piperidyl-N-methylamino]-2-pyridyl}-2-allyl-6-(p-chlorophenylamino)-1,2-dihydro-3H-1,2,5,7-tetraazainden-3-one], for which the pIC50 was 7.00 to 8.00 in test [2] and below 6.30 in test [3].
For `C=CCn1c(=O)c2cnc(Nc3ccc(OC)nc3)nc2n1-c1cccc(OC2CCNCC2)n1` [Compound 251, 2-allyl-6-(6-methoxy-3-pyridylamino)-1-[6-(4-piperidyloxy)-2-pyridyl]-1,2-dihydro-3H-1,2,5,7-tetraazainden-3-one], in that order: above 8.00 and 7.00 to 7.70.
The like results for `C=CCn1c(=O)c2cnc(Nc3ccc4ncccc4c3)nc2n1-c1cccc(OC2CCN(C)CC2)n1` [Compound 325, 2-allyl-1-[6-(1-methyl-4-piperidyloxy)-2-pyridyl]-6-(6-quinolylamino)-1,2-dihydro-3H-1,2,5,7-tetraazainden-3-one] were, in that order, above 8.00 and 7.00 to 7.70.
Regarding `CCn1c(=O)c2cnc(Nc3cnn(C)c3)nc2n1-c1cccc(OC2CCN(C)CC2)n1` [Compound 341, 2-ethyl-6-[(1-methyl-1H-pyrazol-4-yl)amino]-1-{6-[(1-methylpiperidin-4-yl)oxy]pyridin-2-yl}-1H,2H,3H-pyrazolo[3,4-d]pyrimidin-3-one], the pEC50 in test [1] was 6.30 to 7.00. The pIC50 in test [3] is 7.00 to 7.70.
